# According to article PMC4222822, “Discovery and Characterization of a Potent and Selective Inhibitor of Aedes aegypti Inward Rectifier Potassium Channels” (PLoS ONE, 2014):
# Experiments:
# [1] = molecular target: T1, Kir4.1 (Homo sapiens, UniProt P78508); experiment: Tl+ flux selectivity assay, Kir4.1; assay type: cell-based; conditions: n = 2 independent experiments in triplicate, read-out: Inhibition of Tl+ flux (IC50)
# T1 construct: expressed in transfected cells
# T1 sequence (P78508 1-379): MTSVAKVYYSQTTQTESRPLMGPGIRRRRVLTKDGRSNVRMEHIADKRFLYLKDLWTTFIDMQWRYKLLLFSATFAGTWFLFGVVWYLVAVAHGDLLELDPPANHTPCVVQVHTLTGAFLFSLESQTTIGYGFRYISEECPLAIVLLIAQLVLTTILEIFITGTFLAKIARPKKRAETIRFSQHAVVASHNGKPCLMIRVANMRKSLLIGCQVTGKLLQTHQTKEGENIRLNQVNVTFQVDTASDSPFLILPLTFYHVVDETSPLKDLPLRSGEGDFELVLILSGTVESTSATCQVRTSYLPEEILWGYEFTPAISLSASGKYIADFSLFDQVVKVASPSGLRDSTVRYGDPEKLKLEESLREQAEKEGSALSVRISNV
# Protocol: (§1) Tl^+ flux assays were performed essentially as described previously, [18], [19]. Briefly, stably transfected T-Rex-HEK-293 cells expressing AeKir1 channels were cultured overnight in 384-well plates (20,000 cells/20 µL/well black-walled, clear-bottomed BD PureCoat amine-coated plates (BD, Bedford, MA) with a plating media containing DMEM, 10% dialyzed FBS and 1 µg/mL tetracycline. The next day, the cell culture medium was replaced with a dye-loading solution containing assay buffer (Hanks Balanced Salt Solution with 20 mM HEPES, pH 7.3), 0.01% (w/v) Pluronic F-127 (Life Technologies, Carlsbad, CA), and 1.2 µM of the thallium-sensitive dye Thallos-AM (TEFlabs, Austin, TX). Following 1 hr incubation at room temperature, the dye-loading solution was washed from the plates and replaced with 20 µL/well of assay buffer. […] Tl^+ flux data were analyzed as previously described, [21], [22] using a combination of Excel (Microsoft Corp, Redmond, WA) with XLfit add-in (IDBS, Guildford, Surrey, UK) and OriginPro (OriginLab, Northampton, MA) software. […] The slope of the fluorescence increase beginning 5 s after Tl^+ addition and ending 15 s after Tl^+ addition was calculated.
# [2] = molecular target: T2, Kir6.2/SUR1 (Homo sapiens, UniProt Q14654); experiment: Tl+ flux selectivity assay, Kir6.2/SUR1; assay type: cell-based; conditions: Kir6.2/SUR1, diazoxide 250 µM; n = 2 independent experiments in triplicate; read-out: Inhibition of Tl+ flux (IC50)
# T2 construct: expressed in transfected cells
# Protocol: [Worded in the source for another target; used here, by the source, with some conditions changed.] as §1
# [3] = molecular target: melatonin MT1 receptor (Homo sapiens, UniProt P48039); experiment: Radioligand displacement assay, melatonin MT1 receptor; assay type: binding, mammalian; conditions: 10 µM VU625
# Sequence of melatonin MT1 receptor (P48039 whole entry): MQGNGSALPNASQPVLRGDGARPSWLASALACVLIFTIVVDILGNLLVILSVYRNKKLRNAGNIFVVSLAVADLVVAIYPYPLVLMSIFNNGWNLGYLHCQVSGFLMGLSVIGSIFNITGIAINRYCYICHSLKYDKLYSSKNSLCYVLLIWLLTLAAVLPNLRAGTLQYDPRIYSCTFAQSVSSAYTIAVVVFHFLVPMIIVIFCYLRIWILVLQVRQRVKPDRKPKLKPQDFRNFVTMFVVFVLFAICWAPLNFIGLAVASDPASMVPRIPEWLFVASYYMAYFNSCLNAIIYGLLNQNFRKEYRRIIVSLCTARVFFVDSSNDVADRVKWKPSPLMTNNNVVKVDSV
# T2 sequence (Q14654 whole entry): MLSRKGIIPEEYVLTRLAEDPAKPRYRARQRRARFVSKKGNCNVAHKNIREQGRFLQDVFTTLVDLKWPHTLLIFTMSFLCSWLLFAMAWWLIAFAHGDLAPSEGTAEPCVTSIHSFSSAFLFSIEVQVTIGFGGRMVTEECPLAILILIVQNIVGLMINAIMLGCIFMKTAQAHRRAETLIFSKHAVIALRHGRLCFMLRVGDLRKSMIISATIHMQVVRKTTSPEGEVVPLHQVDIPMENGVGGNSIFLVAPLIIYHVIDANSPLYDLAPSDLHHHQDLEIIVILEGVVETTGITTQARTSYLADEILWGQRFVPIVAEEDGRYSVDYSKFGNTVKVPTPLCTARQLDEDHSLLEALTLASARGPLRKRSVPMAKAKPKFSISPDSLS
# T2 sequence (Q09428 whole entry partner): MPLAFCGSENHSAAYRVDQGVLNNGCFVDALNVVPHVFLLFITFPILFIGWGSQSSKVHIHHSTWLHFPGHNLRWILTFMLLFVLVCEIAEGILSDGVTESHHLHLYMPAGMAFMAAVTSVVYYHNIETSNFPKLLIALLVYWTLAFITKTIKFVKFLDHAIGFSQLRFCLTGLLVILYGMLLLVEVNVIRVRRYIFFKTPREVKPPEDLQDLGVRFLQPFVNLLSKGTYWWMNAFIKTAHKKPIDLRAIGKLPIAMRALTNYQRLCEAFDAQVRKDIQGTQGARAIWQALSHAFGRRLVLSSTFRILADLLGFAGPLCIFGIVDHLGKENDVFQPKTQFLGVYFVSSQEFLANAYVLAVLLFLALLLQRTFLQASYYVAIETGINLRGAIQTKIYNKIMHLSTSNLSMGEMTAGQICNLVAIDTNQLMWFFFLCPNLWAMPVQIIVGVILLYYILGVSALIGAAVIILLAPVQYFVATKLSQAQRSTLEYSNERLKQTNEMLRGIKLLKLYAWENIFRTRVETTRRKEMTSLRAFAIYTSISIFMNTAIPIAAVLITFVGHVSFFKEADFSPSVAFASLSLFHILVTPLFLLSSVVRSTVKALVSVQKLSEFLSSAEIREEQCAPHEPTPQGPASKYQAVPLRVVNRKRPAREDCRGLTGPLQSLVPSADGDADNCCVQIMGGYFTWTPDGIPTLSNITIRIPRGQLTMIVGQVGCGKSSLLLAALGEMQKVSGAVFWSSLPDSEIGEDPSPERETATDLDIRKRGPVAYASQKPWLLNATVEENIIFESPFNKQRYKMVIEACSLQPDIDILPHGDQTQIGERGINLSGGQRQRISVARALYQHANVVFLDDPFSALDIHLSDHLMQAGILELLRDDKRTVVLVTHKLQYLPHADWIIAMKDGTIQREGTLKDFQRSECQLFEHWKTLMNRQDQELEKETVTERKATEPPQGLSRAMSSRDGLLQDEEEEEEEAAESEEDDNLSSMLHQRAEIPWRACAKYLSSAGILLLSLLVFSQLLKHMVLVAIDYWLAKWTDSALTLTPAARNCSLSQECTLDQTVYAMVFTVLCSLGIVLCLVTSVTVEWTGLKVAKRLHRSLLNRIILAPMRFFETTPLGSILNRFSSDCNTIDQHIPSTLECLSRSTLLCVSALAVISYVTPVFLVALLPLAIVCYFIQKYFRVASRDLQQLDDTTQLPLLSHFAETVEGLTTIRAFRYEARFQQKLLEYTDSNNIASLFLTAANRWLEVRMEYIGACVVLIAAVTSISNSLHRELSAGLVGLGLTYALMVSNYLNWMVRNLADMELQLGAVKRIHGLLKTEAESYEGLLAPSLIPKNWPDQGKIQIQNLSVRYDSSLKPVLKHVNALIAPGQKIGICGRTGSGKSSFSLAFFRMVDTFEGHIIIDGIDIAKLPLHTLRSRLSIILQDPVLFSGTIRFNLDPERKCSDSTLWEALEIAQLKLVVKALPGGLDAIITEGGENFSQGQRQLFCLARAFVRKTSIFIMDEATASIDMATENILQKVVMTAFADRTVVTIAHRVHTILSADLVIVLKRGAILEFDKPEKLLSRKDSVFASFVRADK
smiles,measurement,setting,value
"CCC(=O)N1c2ccc(S(=O)(=O)Nc3cccc(OC)c3)cc2CC1C (stereo not drawn) [VU625, N-(3-methoxyphenyl)-2-methyl-1-propionylindoline-5-sulfonamide]",IC50,[1],> 30 µM
same,IC50,[2],> 30 µM
same,radioligand displacement,[3],56%
